Publication PMC10610545, “Preclinical Evaluation of an Imidazole-Linked Heterocycle for Alzheimer’s Disease” (Pharmaceutics, 2023)

Key:
[1] = system: SH-SY5Y dopaminergic neurons; experiment: 6-OHDA-induced damage in SH-SY5Y cells (MTT viability, Griess nitrite); assay type: cell-based, human; conditions: 35 μM 6-OHDA; for neuroprotection (cell viability, MTT): 1 h pretreatment, LSL33 2 μM, LSL34 and LSL60101 1 μM; for nitrite production: culture supernatant
Procedure: (§1) In the study of neurotoxicity associated with AD, the HT22 mouse hippocampal neuronal cell line has been recognized as an effective cell model. HT22 cells were purchased from Merck-Sigma-Aldrich (SCC12, Madrid, Spain) and cultured in DMEM-F12 (Gibco, Fisher Scientific, Madrid, Spain) supplemented with foetal bovine serum (FBS, 10%) and 1% penicillin/streptomycin under standard conditions (37 °C, 5% CO2). The human dopaminergic cell line SH-SY5Y, in turn, has been widely used as an in vitro model to study the pathogenesis of PD associated with dopaminergic degeneration. Cells, acquired from the American Type Culture Collection (ATCC, Rockville, MD, USA, Ref.CRL-2266), were grown in RPMI medium (Gibco) supplemented with glutamine (2 mM), 10% FBS, and 1% penicillin/streptomycin under standard conditions. Semiconfluent cells (90%) were seeded on 96-well plates at 3 × 10^4 per well and incubated for 24 h before treatment.
(§2) Neuronal cultures, HT-22 and SH-SY5Y, seeded on 96-well plates were treated with LSL33, LSL34, and LSL60101 for 24 h, and viability was assessed using the MTT assay. […] Then, cultures were treated for 1h with LSL33 at 2 μM and LSL34 and LSL60101 at 1 μM. This dose was chosen based on previous studies. Subsequently, HT-22 cultures were exposed to glutamate (10 mM, Merck-Sigma), while SH-SY5Y cultures received 6-hydroxydopamine (6-OHDA, 35 μM, Merck-Sigma). The cells were then incubated for a minimum of 16 h. Finally, the cellular viability and nitrite production of the cultures were assessed.
(§3) The assessment of cell viability was conducted using the 3-(4,5-dimethylthiazol-2-yl)-5-(3-carboxymethoxyphenyl)-2-(4-sulfophenyl)-2H-tetrazolium (MTT) assay, following the instructions provided by the manufacturer (Roche Diagnostic, Darmstadt, Germany). Briefly, after exposure to glutamate or 6-OHDA, the cell culture medium was replaced with 100 μL of fresh culture medium containing MTT solution (0.5 mg/mL) and incubated for 1 h. The medium was then removed, and the resulting formazan crystals were dissolved in dimethylsulfoxide (DMSO, Merck-Sigma). The absorbance of the solution was measured at 595–650 nm using a spectrophotometer. The experiments were performed at least three times, and the results were expressed as a percentage of the control.
(§4) Following the designated treatments, 100 μL of the cell culture supernatant was mixed with an equal volume of Griess reagent (consisting of 1% sulfanylamide and 0.1% naphthyl ethylene diamine in 5% phosphoric acid, sourced from Sigma-Aldrich, Madrid, Spain) at room temperature for 15 min. To determine the nitrite concentrations, a standard solution of sodium nitrite was employed. The absorbance of the mixture was measured at 492/540 nm using a microplate reader from Thermofisher (Madrid, Spain). The experiments were repeated a minimum of three times.
(§5) Figure 4 In vitro screening of I2-IR ligands: Assessment of neuroprotective and anti-inflammatory effects HT-22 cells exposed to 10mM glutamate for at least 16 h Similarly, SH-SY5Y was damaged with 35 μM 6-OHDA (35 μM). Some cultures were pretreated with the I2-IR ligands. Cell viability was evaluated using the MTT assay, and nitrite production in the cell supernatant was quantified using the Griess reaction. The reported values represent the mean ± SD obtained from triplicate determinations repeated at least three times. Statistical analysis was performed: * p ≤ 0.05, ** p ≤ 0.01, *** p ≤ 0.001 (versus glutamate- or 6-OHDA-treated cultures); ^# p ≤ 0.05, ^### p ≤ 0.001 (versus idazoxan-treated cultures); ^& p ≤ 0.1, ^&&& p ≤ 0.001 (versus 2-BFI-treated cultures).

I2-IR = conditions: rat cerebral cortex, 1 µM yohimbine; >50% considered significant
[2] = molecular target: α2-adrenergic receptor (α2-AR); experiment: Competition binding against [3H]RX821002, membranes from post-mortem human frontal cortex
Excerpt: The inhibition constant (Ki) for each compound was obtained and is expressed as the corresponding pKi. The selectivity for these two receptors was expressed by the I2/α2 index, calculated as the antilogarithm of the […] between pKi values for I2-IR and pKi values for α2-AR.
Preparation of cellular membranes.
Human brain samples were obtained at autopsy in the Basque Institute of Legal Medicine, Bilbao, Spain. Samples from the prefrontal cortex (Brodmann’s area 9) were dissected at the time of autopsy and immediately stored at -70 °C until assay. The study was developed in compliance with policies of research and ethical review boards for postmortem brain studies.
To obtain cellular membranes (P2 fraction) the different samples were homogenized using an ultraturrax in 10 volumes of homogenization buffer (0.25 M sucrose, 5 mM Tris–HCl, pH 7.4).
The crude homogenate was centrifuged for 5 min at 1000 g (4 °C) and the supernatant was centrifuged again for 10 min at 40,000 g (4 °C). The resultant pellet was washed twice in 5 volumes of homogenization buffer and recentrifuged in similar conditions. Protein content was measured according to the method of Bradford using BSA as standard.
Competition Binding Assays.
The pharmacological activity of the compounds was evaluated through competition binding studies against the I2-IR selective radioligand [3H]2-BFI or the α2-adrenergic receptor selective radioligand [3H]RX821002. Specific binding was measured in 0.25 mL aliquots (50 mM Tris-HCl, pH 7.5) containing 100 µg of membranes, which were incubated in 96-well plates either with […]
Incubations were terminated by separating free ligand from bound ligand by rapid filtration […]
counted for radioactivity by liquid scintillation spectrometry using a MicroBeta TriLux counter (PerkinElmer). Specific binding was determined and plotted as a function of the compound concentration. Nonspecific binding was determined in the presence of idazoxan (10–5 M), a compound with well stablished affinity for I2-IR and α2-adrenergic receptors, in [3H]2-BFI and [3H]RX821002 assays. To obtain the inhibition constant (Ki) analyses of competition experiments were performed by nonlinear regression using the GraphPad Prism program. Ki values were normalized to pKi values. I2-IR/α2 selectivity index was calculated as the antilogarithm of the difference between pKi values for I2-IR and pKi values for α2-ARs.

HT-22 hippocampal cells = experiment: Glutamate-induced damage in HT-22 cells (MTT viability, Griess nitrite); assay type: cell-based, mouse; conditions: HT-22, 10 mM glutamate; for neuroprotection (cell viability, MTT): 1 h pretreatment, LSL33 2 μM, LSL34 and LSL60101 1 μM; for nitrite production: culture supernatant
Procedure: as §1, §2, §3, §4, §5

SMILES	neuroprotection (cell viability, MTT) [1]	nitrite production [1]	inhibition of [3H]idazoxan binding (I2-IR) [%]	[3H]-RX821002 α2 pKi [2]	neuroprotection (cell viability, MTT) (HT-22 hippocampal cells)	nitrite production (HT-22 hippocampal cells)
Cl.c1ccc2sc(-c3ncc[nH]3)cc2c1 [LSL33, 2-(Benzo[b]thiophene-2-yl)-1H-imidazole hydrochloride]	potent neuroprotective effects	significant attenuation of the increased nitrite production	84	4.70 ± 0.12	potent neuroprotective effects	significant attenuation of the increased nitrite production
c1ccc2oc(-c3ncc[nH]3)cc2c1 [LSL60101, reference compound]	potent neuroprotective effects	significant attenuation of the increased nitrite production	–	3.18 ± 0.17	potent neuroprotective effects	significant attenuation of the increased nitrite production
Cl.c1ccc2oc(-n3ccnc3)cc2c1 [LSL34, 1-(Benzofuran-2-yl)-1H-imidazole hydrochloride]	potent neuroprotective effects	significant attenuation of the increased nitrite production	53	–	potent neuroprotective effects	significant attenuation of the increased nitrite production
